± gives the expanded uncertainty stated by the source.
What was measured:
[1] = for surface tension liquid-gas: Ring tensiometer; for viscosity / speed of sound / mass density: 100 kPa, Liquid; for viscosity: Capillary tube (Ostwald / Ubbelohde) method; for speed of sound: Frequency=2 MHz, Linear variable-path acoustic interferometer; for mass density: Vibrating tube method
[2] = xn = mol fraction of the nth substance listed; details: x2 = 0; for surface tension liquid-gas: Ring tensiometer; for viscosity / speed of sound / mass density: 100 kPa, Liquid; for viscosity: Capillary tube (Ostwald / Ubbelohde) method; for speed of sound: Frequency=2 MHz, Linear variable-path acoustic interferometer; for mass density: Vibrating tube method

Cc1cccc(C)c1 [1,3-dimethylbenzene]
[1]
Details	mass density [kg/m3]	speed of sound [m/s]	surface tension liquid-gas [mN/m]	viscosity [mPa·s]
298.15 K	859.1 ± 1	1320.9 ± 10	28.19 ± 0.89	0.59 ± 0.03
308.15 K	849.2 ± 1	1280 ± 10	26.95 ± 0.89	0.525 ± 0.03
318.15 K	840.4 ± 1	1238.2 ± 10	25.64 ± 0.88	0.482 ± 0.03
323.15 K	835.8 ± 1	1218.4 ± 10	25 ± 0.88	0.443 ± 0.03
328.15 K	831.6 ± 1	1195.2 ± 10	24.37 ± 0.87	0.433 ± 0.03

Cc1cccc(C)c1 [1,3-dimethylbenzene] + CCC(C)(C)OC
[2]
Details	mass density [kg/m3]	speed of sound [m/s]	surface tension liquid-gas [mN/m]	viscosity [mPa·s]
298.15 K	859.1 ± 1	1320.9 ± 10	28.19 ± 0.89	0.59 ± 0.03
308.15 K	849.2 ± 1	1280 ± 10	26.95 ± 0.89	0.525 ± 0.03
318.15 K	840.4 ± 1	1238.2 ± 10	25.64 ± 0.88	0.482 ± 0.03
323.15 K	835.8 ± 1	1218.4 ± 10	25 ± 0.88	0.443 ± 0.03
328.15 K	831.6 ± 1	1195.2 ± 10	24.37 ± 0.87	0.433 ± 0.03

CCC(C)(C)OC [2-methoxy-2-methylbutane]
[1]
Details	mass density [kg/m3]	speed of sound [m/s]	surface tension liquid-gas [mN/m]	viscosity [mPa·s]
298.15 K	765.6 ± 1	1118 ± 10	19.72 ± 0.85	0.424 ± 0.03
308.15 K	756.3 ± 1	1075.6 ± 10	18.66 ± 0.85	0.39 ± 0.03
318.15 K	746.3 ± 1	1031.1 ± 10	17.65 ± 0.85	0.357 ± 0.03
323.15 K	741.4 ± 1	1003 ± 10	17.13 ± 0.84	0.34 ± 0.03
328.15 K	736.5 ± 1	985.24 ± 10	16.62 ± 0.84	0.328 ± 0.03

CCCCCC [hexane]
[1]
Details	mass density [kg/m3]	speed of sound [m/s]	surface tension liquid-gas [mN/m]	viscosity [mPa·s]
298.15 K	654.7 ± 1	1073.2 ± 10	17.75 ± 0.85	0.295 ± 0.03
308.15 K	645.4 ± 1	1031.2 ± 10	16.63 ± 0.84	0.263 ± 0.03
318.15 K	636.2 ± 1	981.26 ± 10	15.52 ± 0.84	0.24 ± 0.03
323.15 K	631.2 ± 1	960.75 ± 10	14.96 ± 0.84	0.232 ± 0.03
328.15 K	626.4 ± 1	940.39 ± 10	14.41 ± 0.83	0.223 ± 0.03

CCCCCC [hexane] + CCC(C)(C)OC
[2]
Details	mass density [kg/m3]	speed of sound [m/s]	surface tension liquid-gas [mN/m]	viscosity [mPa·s]
298.15 K	654.7 ± 1	1073.2 ± 10	17.75 ± 0.85	0.295 ± 0.03
308.15 K	645.4 ± 1	1031.2 ± 10	16.63 ± 0.84	0.263 ± 0.03
318.15 K	636.2 ± 1	981.23 ± 10	15.52 ± 0.84	0.24 ± 0.03
323.15 K	631.2 ± 1	960.75 ± 10	14.96 ± 0.84	0.232 ± 0.03
328.15 K	626.4 ± 1	940.35 ± 10	14.41 ± 0.83	0.223 ± 0.03

Source: the NIST ThermoML archive (doi:10.1021/acs.jced.8b00589)
